In assay [1] the target is T1, Disks large homolog 4 (Homo sapiens, UniProt P78352). Put plainly: Displacement of Cy5-GluN2B from N-terminal His-tagged full length human PSD-95alpha PDZ2 domain (155 to 249 residues) without exon 4b expressed in Escherichia coli BL21(DE3)pLysS by fluorescence polarization assay. (In general: Fluorescence polarisation rises when a labelled molecule tumbles more slowly, as on binding a larger partner.)
Target sequence in this assay (P78352 whole entry, the tested form may be a part): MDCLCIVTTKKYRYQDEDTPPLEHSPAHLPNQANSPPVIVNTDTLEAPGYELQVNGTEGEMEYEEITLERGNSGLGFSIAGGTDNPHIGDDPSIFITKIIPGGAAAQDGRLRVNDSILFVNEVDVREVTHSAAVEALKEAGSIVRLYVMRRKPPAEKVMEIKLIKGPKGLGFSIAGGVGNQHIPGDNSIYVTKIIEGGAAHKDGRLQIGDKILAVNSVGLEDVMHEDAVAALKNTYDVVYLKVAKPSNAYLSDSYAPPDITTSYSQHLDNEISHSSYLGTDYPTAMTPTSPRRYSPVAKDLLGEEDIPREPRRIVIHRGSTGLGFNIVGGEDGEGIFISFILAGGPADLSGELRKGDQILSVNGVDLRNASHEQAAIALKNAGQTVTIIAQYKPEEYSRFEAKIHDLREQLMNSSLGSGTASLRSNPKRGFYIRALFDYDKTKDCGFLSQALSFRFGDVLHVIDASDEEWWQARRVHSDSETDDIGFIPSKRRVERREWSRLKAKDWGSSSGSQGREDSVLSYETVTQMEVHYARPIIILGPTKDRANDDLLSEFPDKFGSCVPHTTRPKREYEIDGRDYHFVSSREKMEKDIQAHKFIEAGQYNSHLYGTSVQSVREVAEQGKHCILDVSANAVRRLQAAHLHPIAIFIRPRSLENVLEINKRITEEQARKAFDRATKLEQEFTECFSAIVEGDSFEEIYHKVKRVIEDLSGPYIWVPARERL

The target of assay [2] is T1, Disks large homolog 4. Put plainly: Displacement of Cy5-GluN2B from N-terminal His-tagged human full length PSD-95alpha PDZ1 domain (61 to 151 residues) without exon 4b expressed in Escherichia coli BL21(DE3)pLysS by fluorescence polarization assay.
Target sequence in this assay (P78352 whole entry, the tested form may be a part): as above
For assay [3], the target named is T1, Disks large homolog 4. Put plainly: Binding affinity to N-terminal His-tagged full length human PSD-95alpha PDZ2 domain (155 to 249 residues) without exon 4b expressed in Escherichia coli BL21(DE3)pLysS by […] method. In general terms: In ITC the heat of successive injections is recorded.
Target sequence in this assay (P78352 whole entry, the tested form may be a part): as above
Assay [4] concerns the target T1, Disks large homolog 4. Put plainly: Ratio of Kd for N-terminal His-tagged full length human PSD-95alpha PDZ2 domain (155 to 249 residues) without exon 4b expressed in Escherichia coli BL21(DE3)pLysS by […] method to Ki for N-terminal His-tagged full length human PSD-95alpha PDZ2 domain (155 to 249 residues) without exon 4b expressed in Escherichia coli BL21(DE3)pLysS by fluorescence polarization assay.
Target sequence in this assay (P78352 whole entry, looked up, the tested form may be a part): as the sequence (P78352 whole entry, the tested form may be a part) above

The target in assay [5] is T1, Disks large homolog 4. Put plainly: Displacement of Cy5-CRIPT from N-terminal His-tagged human full length PSD-95alpha PDZ3 domain (309 to 401 residues) without exon 4b expressed in Escherichia coli BL21(DE3)pLysS by fluorescence polarization assay.
Target sequence in this assay (P78352 whole entry, looked up, the tested form may be a part): as the sequence (P78352 whole entry, the tested form may be a part) above
The target in assay [6] is T1, Disks large homolog 4. Put plainly: Potency index, ratio of indole 1 Ki to compound Ki for N-terminal His-tagged full length human PSD-95alpha PDZ2 domain (155 to 249 residues) without exon 4b expressed in Escherichia coli BL21(DE3)pLysS.
Target sequence in this assay (P78352 whole entry, looked up, the tested form may be a part): as the sequence (P78352 whole entry, the tested form may be a part) above
The target of assay [7] is Disks large homolog 4 (Rattus norvegicus, UniProt P31016). The assay can be described thus: Inhibition of rat PSD-95 PDZ1 domain interaction with mouse 5HT2A receptor after 18 hrs by pull down assay.

pIC50, pKd, pKi: −log10 of the molar value. Active and inactive are the calls of the source. No cut-off for these calls is given here. Residues, ends and D or L forms follow the SMILES beside them.

Sequence of Disks large homolog 4 (Rattus norvegicus, UniProt P31016) (P31016 whole entry, the tested form may be a part): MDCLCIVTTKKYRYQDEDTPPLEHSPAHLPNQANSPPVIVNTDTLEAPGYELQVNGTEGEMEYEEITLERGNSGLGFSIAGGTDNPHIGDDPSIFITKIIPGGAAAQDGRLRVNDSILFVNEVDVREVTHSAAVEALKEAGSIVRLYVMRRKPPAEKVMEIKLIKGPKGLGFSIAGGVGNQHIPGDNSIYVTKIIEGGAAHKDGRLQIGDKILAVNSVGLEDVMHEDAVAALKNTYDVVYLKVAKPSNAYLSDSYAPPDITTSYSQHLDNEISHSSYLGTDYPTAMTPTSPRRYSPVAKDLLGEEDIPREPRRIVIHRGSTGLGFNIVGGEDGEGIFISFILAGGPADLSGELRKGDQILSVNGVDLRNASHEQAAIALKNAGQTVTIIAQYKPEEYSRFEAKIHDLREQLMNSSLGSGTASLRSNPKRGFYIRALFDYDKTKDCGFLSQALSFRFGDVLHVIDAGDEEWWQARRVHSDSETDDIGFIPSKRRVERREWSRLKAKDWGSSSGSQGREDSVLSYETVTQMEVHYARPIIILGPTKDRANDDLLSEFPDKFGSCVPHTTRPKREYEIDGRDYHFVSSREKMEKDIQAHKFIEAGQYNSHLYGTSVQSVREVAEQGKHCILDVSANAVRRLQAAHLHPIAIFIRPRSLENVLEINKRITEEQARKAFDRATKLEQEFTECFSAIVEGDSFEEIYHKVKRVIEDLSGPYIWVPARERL

Broadly, the pKi is the negative decadic logarithm of the Ki, by convention in mol/L. For `CC(C)[C@H](NC(=O)c1cn([C@H](C(=O)O)C(C)C)nn1)C(=O)O`, in assay [1], the pKi is under 3.30.
The pKd is the Kd on a negative log10 scale, so that one unit is a factor of ten. Low readings indicate a large Kd, high ones a small Kd. Regarding `CC(C)[C@H](NC(=O)[C@H](C)NC(=O)[C@@H](N)[C@@H](C)O)C(=O)O` (H-Thr-Ala-Val-OH), the pKi was 4.13 in assay [2] and 4.42 in assay [1]. The compound also had a pKd in assay [3] of 4.00. Besides, in assay [4], the Ratio is 2.
For `Cc1c(C(=O)O)[nH]c2cc(C(=O)O)c(O)cc12`, the inhibition entry in assay [5] was “inactive”. For the same compound, the results for the pKi in assay [2] and in assay [1] were under 3.00 and 3.28, respectively.
With `CC(C)[C@H](NC(=O)[C@H](C)n1cc([C@@H](N)[C@@H](C)O)nn1)C(=O)O`, the inhibition entry in assay [5] is “inactive”. Also, the pKi is under 3.30 in assay [2] and 3.54 in assay [1]. The Ratio Ki in assay [6] came out at 2. The same compound gave a pKd in assay [3] of 3.22. In addition, in assay [4], the Ratio turned out to be 2.
As to `CC(C)[C@H](NC(=O)[C@H](C)NC(=O)[C@@H](N)CO)C(=O)O` (H-Ser-Ala-Val-OH), the pKi in assay [2] was 3.32; in assay [1], 3.64.
`CC(C)[C@@H](C(=O)O)n1cc([C@H](C)NC(=O)[C@@H](N)[C@@H](C)O)nn1` showed a pKi in assay [1] of under 3.30.
The pIC50 is the IC50 on a negative log10 scale, so that one unit is a factor of ten. A higher pIC50 goes with a low IC50. For `Cc1c(C(=O)O)n(CCCC(=O)O)c2cc(C(=O)O)c(OCc3ccccc3)cc12`, the inhibition entry in assay [5] was “inactive”. In addition, the pIC50 in assay [7] was 3.72. Moreover, the pKi was under 3.00 in assay [2] and under 3.30 in assay [1].

Values taken from ChEMBL document CHEMBL3797197, “Design and synthesis of triazole-based peptidomimetics of a PSD-95 PDZ domain inhibitor” (Medchemcomm, 2016).
